The subject of experiment [1] is RKO colon adenocarcinoma cells (RKOp27) arrested by expression of ectopic p27Kip1. Kind of experiment: Alamar Blue cell viability assay, cell cycle specific mode of action, RKO p27 induced (arrested by Ponasterone A-induced p27Kip1). It is filed as cell-based. Conditions: Homo sapiens, RKOp27, 72 h, cells arrested by p27Kip1 induced with 10 μM Ponasterone A, 72 hours incubation. As to the method: To determine the cell cycle specific mode of action, subdlones of RKO colon adenocarcinoma cells (RKOp27 or RKOp21 as described by Schmidt et al. in Oncogene 19, 2423-2429; 2000) are seeded into 96 well flat bottom plates at a density of 16000 cells per well in a volume of 50 μl per well in DMEM growth medium with 10% FCS containing 10 μM Ponasterone A. 24 hours after seeding the 50 μl each of the compound dilutions in DMEM medium are added into each well of the 96 Well plate. Each compound dilution is tested as quadruplicates. Wells containing untreated control cells are filled with 50 μl DMEM medium containing 1% DMSO. The cells are then incubated with the substances for 72 hours at 37° C. in a humidified atmosphere containing 5% carbon dioxide. To determine the viability of the cells, 10 μl of an Alamar Blue solution (Biosource) are added and the fluorescence was measured at an extinction of 544 nm and an emission of 590 nm. For the calculation of the cell viability the emission value from untreated cells is set as 100% viability and the emission rates of treated cells are set in relation to the values of untreated cells. Viabilities are expressed as % values. Viability is compared of proliferating cells grown in the absence of the inducer Ponasterone A, versus viability of cells arrested by the expression of ectopic p27Kip1 induced by Ponasterone A. The data of this experimental setting are summarized in table A (2nd column).

The subject of experiment [2] is RKO (RKOp27) human colon adenocarcinoma cells. Put plainly: Alamar Blue cell viability assay, anti-proliferative/cytotoxic activity, RKO p27 uninduced. It is filed as cell-based. Conditions: RKOp27, 72 h, proliferating cells, absence of the inducer Ponasterone A, 72 hours incubation. As to the method:
The anti-proliferative/cytotoxic activity of the compounds described herein, can be tested on subdlones of RKO (RKOp27) human colon adenocarcinoma cells (Schmidt et al., Oncogene 19, 2423-2429; 2000) using the Alamar Blue cell viability assay (described in O'Brien et al. Eur J Biochem 267, 5421-5426, 2000). The compounds are dissolved as 20 mM solutions in dimethylsulfoxide (DMSO) and subsequently diluted in semi-logarithmic steps. DMSO dilutions are further diluted 1:100 into Dulbecco's modified Eagle's medium (DMEM) containing 10% fetal calf serum to a final concentration twice as much as the final concentration in the test. RKO subclones are seeded into 96 well flat bottom plates at a density of 4000 cells per well in a volume of 50 µl per well. 24 hours after seeding the 50 μl each of the compound dilutions in DMEM medium are added into each well of the 96 Well plate. Each compound dilution is tested as quadruplicates. Wells containing untreated control cells are filled with 50 μl DMEM medium containing 1% DMSO. The cells are then incubated with the substances for 72 hours at 37° C. in a humidified atmosphere containing 5% carbon dioxide. To determine the viability of the cells, 10 μl of an Alamar Blue solution (Biosource) are added and the fluorescence is measured at an extinction of 544 nm and an emission of 590 nm. For the calculation of the cell viability the emission value from untreated cells is set as 100% viability and the emission rates of treated cells are set in relation to the values of untreated cells. Viabilities are expressed as % values.
The corresponding IC50 values of the compounds for anti-proliferative/cytotoxic activity are determined from the concentration-effect curves.
Representative IC50 values for anti-proliferation/cytotoxicity determined for the compounds mentioned and numbered as Examples in the examples above follow from the following table A (1st column), in which the numbers of the compound correspond to the numbers of the examples. Any or all of the compounds according to the present invention which are listed in the Table A, as well as their salts, are to be mentioned as a particular interesting subject of the present invention.

Consider `CC(C)(C)OC(=O)N1CCc2c(sc(NC(=O)c3ccccc3)c2C#N)C1` [Compound 1, N-(6-tert.-Butyloxycarbonyl-3-cyano-4,5,6,7-tetrahydro-thieno[2,3-c]pyridin-2-yl)-benzamide], for which the values for the IC50 in experiment [1] and in experiment [2] were > 100 µM and ≤ 2 µM, respectively.
On the same counts, the results for `COc1cccc(C(=O)Nc2sc3c(c2C#N)CCN(C(=O)OC(C)(C)C)C3)c1` [Compound 3, N-(6-tert.-Butyloxycarbonyl-3-cyano-4,5,6,7-tetrahvdro-thieno[2,3-c]pyridin-2-yl)-3-methoxybenzamide] are > 100 µM and ≤ 2 µM.
For `CCCC(=O)N1CCc2c(sc(NC(=O)c3ccccc3)c2C#N)C1` [Compound 5], the IC50 in experiment [1] is 80 µM; in experiment [2], ≤ 2 µM.
With `CCCCCCC(=O)N1CCc2c(sc(NC(=O)c3ccccc3)c2C#N)C1` [Compound 6], the IC50 in experiment [1] was > 100 µM; in experiment [2], ≤ 2 µM.
For `COCCC(=O)N1CCc2c(sc(NC(=O)c3ccccc3)c2C#N)C1` [Compound 7, N-(3-Cyano-7-methoxyethylcarbonyl-4,5,6,7-tetrahydro-thien[2,3-c]pyridin-2-yl)-benzamide], the IC50 in experiment [1] is > 100 µM; in experiment [2] it was ≤ 2 µM.
For the compound `N#Cc1c(NC(=O)c2ccccc2)sc2c1CCN(C(=O)CCC(N)=O)C2` [Compound 8], the concentration for half-maximal inhibition (IC50) in experiment [1] is > 100 µM; in experiment [2] it was ≤ 2 µM.
On the same counts, the results for `CCOC(=O)N1CCc2c(sc(NC(=O)c3cccc(OC)c3)c2C#N)C1` [Compound 12, N-(6-Ethoxycarbonyl-3-cyano-4,5,6,7-tetrahydro-thieno[2,3-c]pyridin-2-yl)-3-methoxybenzamide] are > 100 µM and ≤ 2 µM.
Consider `CCCCCOC(=O)N1CCc2c(sc(NC(=O)c3ccccc3)c2C#N)C1` [Compound 14], for which the values for the IC50 in experiment [1] and in experiment [2] were > 100 µM and ≤ 2 µM, respectively.
On to `Cc1ncsc1CCOC(=O)N1CCc2c(sc(NC(=O)c3ccccc3)c2C#N)C1` [Compound 17], for which the IC50 is > 100 µM in experiment [1] and ≤ 2 µM in experiment [2].
For the compound `CCOC(=O)N1CCc2c(sc(NC(=O)c3ccccc3)c2C#N)C1` [Compound 18, N-(6-Ethoxycarbonyl-3-cyano-4,5,6,7-tetrahydro-thieno[2,3-c]pyridin-2-yl)-benzamide], the IC50 is > 100 µM in experiment [1] and ≤ 2 µM in experiment [2].
Regarding `CCOC(=O)N1CCc2c(sc(NC(=O)c3cc(OC)cc(OC)c3)c2C#N)C1` [Compound 19, N-(6-Ethoxycarbonyl-3-cyano-4,5,6,7-tetrahydro-thieno[2,3-c]pyridin-2-yl)-3,5-dimethoxybenzamide], the IC50 is > 100 µM in experiment [1] and ≤ 2 µM in experiment [2].
In the case of `CC(=O)N1CCc2c(sc(NC(=O)c3ccccc3)c2C#N)C1` [Compound 20, N-(6-Acetyl-3-cyano-4,5,6,7-tetrahydro-thieno[2,3-c]pyridin-2-yl)-benzamide], the IC50 in experiment [1] is > 100 µM; in experiment [2] it was 3 µM.
As for `COC(=O)CCC(=O)N1CCc2c(sc(NC(=O)c3ccccc3)c2C#N)C1` [Compound 22, 4-{3-Cyano-2-[(1-phenyl-methanoyl)-amino]-4,7-dihydro-5H-thieno[2,3-c]pyridin-6-yl}-4-oxo-butyric acid methyl ester], the figures for the IC50 in experiment [1] and in experiment [2] were > 100 µM and ≤ 2 µM, respectively.
Regarding `COc1cccc(C(=O)Nc2sc3c(c2C#N)CCN(C(C)=O)C3)c1` [Compound 24, N-(6-Acetyl-3-cyano-4,5,6,7-tetrahydro-thieno[2,3-c]pyridin-2-yl)-3-methoxy-benzamide], the IC50 was > 100 µM in experiment [1] and ≤ 2 µM in experiment [2].
For the compound `CCCC(=O)N1CCc2c(sc(NC(=O)c3cccc(OC)c3)c2C#N)C1` [Compound 25, N-(6-Butyryl-3-cyano-4,5,6,7-tetrahydro-thieno[2,3-c]pyridin-2-yl)-3-methoxy-benzamide], the IC50 in experiment [1] is > 100 µM; in experiment [2], ≤ 2 µM.
Turning to `COc1cc(OC)cc(C(=O)Nc2sc3c(c2C#N)CCN(C(C)=O)C3)c1` [Compound 26, N-(6-Acetyl-3-cyano-4,5,6,7-tetrahydro-thieno[2,3-c]pyridin-2-yl)-3,5-dimethoxy-benzamide], the values for the IC50 in experiment [1] and in experiment [2] were > 100 µM and ≤ 2 µM, respectively.
For `CC(=O)CCC(=O)N1CCc2c(sc(NC(=O)c3ccccc3)c2C#N)C1` [Compound 27, N-[3-Cyano-6-(4-oxo-pentanoyl)-4,5,6,7-tetrahydro-thieno[2,3-c]pyridin-2-yl]-benzamide] the same measures were > 100 µM and ≤ 2 µM.
With `N#Cc1c(NC(=O)c2ccccc2)sc2c1CCN(C(=O)CCCc1cccs1)C2` [Compound 28, N-[3-Cyano6-(4-thiophen-2-yl-butanoyl)-4,5,6,7-tetrahydro-thieno[2,3-c]pryridin-2-yl]-benzamide], the IC50 is > 100 µM in experiment [1] and ≤ 2 µM in experiment [2].
Turning to `CCSC(=O)N1CCc2c(sc(NC(=O)c3ccccc3)c2C#N)C1` [Compound 29, N-(3-Cyano-7-(ethylthiocarbonyl)-4,5,6,7-tetrahvdro-thieno[2,3-c]pyridin-2-yl)-benzamide], the concentration for half-maximal inhibition (IC50) in experiment [1] was > 100 µM; in experiment [2], ≤ 2 µM.
As to `N#Cc1c(NC(=O)c2ccccc2)sc2c1CCN(C(=O)CCc1c[nH]c3ccccc13)C2` [Compound 30, N-[3-Cyano-6-(3-1H-indol-3-yl-propanoyl)-4,5,6,7-tetrahydro-thieno[2,3-c]pyridin-2-yl]-benzamide], the IC50 in experiment [1] was > 60 µM; in experiment [2], ≤ 3 µM.
Consider `CCOC(=O)CC(=O)N1CCc2c(sc(NC(=O)c3ccccc3)c2C#N)C1` [Compound 31, 3-{3-Cyano-2-[(1-phenyl-methanoyl)-amino]-4,7-dihydro-5H-thieno[2,3-c]pyridin-6-yl}-3-oxo-propionic acid ethyl ester], for which the IC50 in experiment [1] is > 60 µM; in experiment [2], ≤ 3 µM.
With `COCC(=O)N1CCc2c(sc(NC(=O)c3ccccc3)c2C#N)C1` [Compound 32, N-[3-Cyano-6-(2-methoxy-ethanoyl)-4,6,7-tetrahydro-thieno[2,3-c]pyridin-2-yl]-benzamide], the IC50 in experiment [1] is > 60 µM; in experiment [2], ≤ 3 µM.
Consider `N#Cc1c(NC(=O)c2ccccc2)sc2c1CCN(C(=O)CCc1nccs1)C2` [Compound 33, N-[3-Cyano-6-(3thiazol-2-yl-propanoyl)-4,5,6,7-tetrahydro-thieno[2,3-c]pyridin-2-yl]-benzamide], for which the IC50 in experiment [1] is > 60 µM; in experiment [2], ≤ 3 µM.
On the same counts, the results for `N#Cc1c(NC(=O)c2ccccc2)sc2c1CCN(C(=O)CCn1cnnc1)C2` [Compound 34, N-[3-Cyano-6-(3-[1,2,4]triazol-4-yl-propanoyl)-4,5,6,7-tetrahvdro-thieno[2,3-c]pyridin-2-yl]-benzamide] are > 60 µM and ≤ 3 µM.
On the same counts, the results for `N#Cc1c(NC(=O)c2ccccc2)sc2c1CCN(C(=O)Cc1cccnc1)C2` [Compound 35, N-[3-Cyano-6-(2-pyridin-3-yl-ethanoyl)-4,5,6,7-tetrahydro-thieon[2,3-c]pyridin-2-yl]-benzamide] are > 60 µM and ≤ 3 µM.
`N#Cc1c(NC(=O)c2ccccc2)sc2c1CCN(C(=O)Cc1c[nH]c3ccccc13)C2` [Compound 36, N-[3-Cyano-6-(2-1H-indol-3-yl-ethanoyl)-4,5,6,7-tetrahydro-thieno[2,3-c]pyridin-2-yl]-benzamide]: the IC50 in experiment [1] was > 60 µM; in experiment [2] it was ≤ 3 µM.
